According to article PMC12435405:

Experiment: Double CuAAC of unprotected bis-azido peptide with triethynylphosphine oxide (1.2 eq), CuBr 10 eq, THPTA 20 eq; two-component cyclisation to ethynyl-ditriazolyl-phosphine oxide (EDPO) cyclic peptide; forms two 1,4-triazoles
Settings: the molecule shown is the open-chain precursor, NaOAc buffer (100 mM, pH 5)/MeCN 20%, ~2% DMSO, 1.0 mM, 25.0 °C, 0.083 h

In the case of [N-]=[N+]=NCCCC[C@H](NC(=O)[C@H](Cc1ccc(O)cc1)NC(=O)[C@H](CC(=O)O)NC(=O)CNC(=O)[C@H](CCCNC(=N)N)NC(=O)[C@H](CCCCN)NC(=O)CN=[N+]=[N-])C(N)=O [N3-Gly(azidoacetyl)-Lys-Arg-Gly-Asp-Tyr-Lys(N3)-NH2], the ring closure, isolated yield (30-membered ring) is reported as 41%.

CC(=O)N[C@@H](CCC(=O)O)C(=O)N[C@H](C(=O)N[C@@H](Cc1ccccc1)C(=O)N[C@@H](CCCCN=[N+]=[N-])C(=O)N[C@@H](CC(=O)O)C(=O)N[C@@H](CC(C)C)C(=O)N[C@@H](Cc1c[nH]c2ccccc12)C(=O)N[C@@H](CCCNC(=N)N)C(=O)N[C@@H](CC(C)C)C(=O)N[C@@H](CC(C)C)C(=O)N[C@@H](CCCCN=[N+]=[N-])C(=O)N[C@@H](CCC(=O)O)C(=O)N[C@@H](CC(N)=O)C(N)=O)[C@@H](C)O gave a ring closure, isolated yield (37-membered ring) of 24%.

Compound [N-]=[N+]=NCCCC[C@H](NC(=O)[C@@H](CCCNC(=N)N)NC(=O)[C@H](CCCNC(=N)N)NC(=O)[C@@H](CCCCN)NC(=O)[C@H](CCCCN)NC(=O)[C@@H](CCCNC(=N)N)NC(=O)CNC(=O)[C@@H](CCCNC(=N)N)NC(=O)[C@H](CCCNC(=N)N)NC(=O)[C@@H](CCCNC(=N)N)NC(=O)[C@@H](N)CCCCN=[N+]=[N-])C(N)=O has a ring closure, isolated yield (46-membered ring) of 39%.

With [N-]=[N+]=NCCCC[C@H](NC(=O)CN)C(=O)N[C@@H](CCCNC(=N)N)C(=O)N[C@@H](CCCNC(=N)N)C(=O)N[C@@H](CCCNC(=N)N)C(=O)N[C@@H](CCCNC(=N)N)C(=O)N[C@@H](CCCNC(=N)N)C(=O)N[C@@H](CCCNC(=N)N)C(=O)N[C@@H](CCCNC(=N)N)C(=O)N[C@@H](CCCNC(=N)N)C(=O)N[C@@H](CCCCN=[N+]=[N-])C(=O)NCC(N)=O the ring closure, isolated yield (43-membered ring) was 27%.

In the case of [N-]=[N+]=NCCCC[C@H](NC(=O)CN)C(=O)N[C@@H](CCCNC(=N)N)C(=O)N[C@@H](CCCNC(=N)N)C(=O)N[C@@H](CCCNC(=N)N)C(=O)N[C@@H](CCCNC(=N)N)C(=O)N[C@@H](CCCNC(=N)N)C(=O)N[C@@H](CCCNC(=N)N)C(=O)N[C@@H](CCCNC(=N)N)C(=O)N[C@@H](CCCNC(=N)N)C(=O)N[C@@H](CCCNC(=N)N)C(=O)N[C@@H](CCCNC(=N)N)C(=O)N[C@@H](CCCCN=[N+]=[N-])C(=O)NCC(N)=O, the ring closure, isolated yield (49-membered ring) is reported as 18%.

Work on CC(C)C[C@H](NC(=O)CN=[N+]=[N-])C(=O)N[C@@H](Cc1ccc(O)cc1)C(=O)N[C@@H](CCCNC(=N)N)C(=O)N[C@@H](C)C(=O)N[C@@H](CCCCN=[N+]=[N-])C(N)=O [N3-Gly(azidoacetyl)-Leu-Tyr-Arg-Ala-Lys(N3)-NH2] yielded a ring closure, isolated yield (27-membered ring) of 39%.
